Laboratory results as given in ChEMBL document CHEMBL1141367, “Substituted 2-[(4-aminomethyl)phenoxy]-2-methylpropionic acid PPARalpha agonists. 1. Discovery of a novel series of potent HDLc raising agents” (J Med Chem, 2007).

Key:
[1] = biological target: T1, Peroxisome proliferator-activated receptor alpha (Homo sapiens) (UniProt Q07869); assay: Agonist potency at PPARalpha expressed in CV1 cells relative to GW-590735; assay type: functional, cell-based; details: CV-1
T1 sequence (whole entry): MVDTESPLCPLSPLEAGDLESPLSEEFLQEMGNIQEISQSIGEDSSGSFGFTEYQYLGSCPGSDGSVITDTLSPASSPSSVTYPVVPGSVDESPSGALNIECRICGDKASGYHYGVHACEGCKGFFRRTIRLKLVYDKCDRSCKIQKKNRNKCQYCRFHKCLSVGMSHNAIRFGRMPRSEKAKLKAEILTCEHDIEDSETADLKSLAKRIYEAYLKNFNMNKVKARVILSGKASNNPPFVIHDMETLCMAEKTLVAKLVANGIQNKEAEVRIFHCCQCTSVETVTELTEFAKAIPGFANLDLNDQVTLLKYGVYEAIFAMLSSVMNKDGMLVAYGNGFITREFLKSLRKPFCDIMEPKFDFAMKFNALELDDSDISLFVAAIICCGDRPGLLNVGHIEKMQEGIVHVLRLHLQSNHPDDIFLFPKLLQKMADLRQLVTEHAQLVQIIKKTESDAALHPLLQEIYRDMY

[2] = biological target: T2, Peroxisome proliferator-activated receptor gamma (Homo sapiens, UniProt P37231); assay type: functional, cell-based, CV-1
T2 sequence (P37231 whole entry): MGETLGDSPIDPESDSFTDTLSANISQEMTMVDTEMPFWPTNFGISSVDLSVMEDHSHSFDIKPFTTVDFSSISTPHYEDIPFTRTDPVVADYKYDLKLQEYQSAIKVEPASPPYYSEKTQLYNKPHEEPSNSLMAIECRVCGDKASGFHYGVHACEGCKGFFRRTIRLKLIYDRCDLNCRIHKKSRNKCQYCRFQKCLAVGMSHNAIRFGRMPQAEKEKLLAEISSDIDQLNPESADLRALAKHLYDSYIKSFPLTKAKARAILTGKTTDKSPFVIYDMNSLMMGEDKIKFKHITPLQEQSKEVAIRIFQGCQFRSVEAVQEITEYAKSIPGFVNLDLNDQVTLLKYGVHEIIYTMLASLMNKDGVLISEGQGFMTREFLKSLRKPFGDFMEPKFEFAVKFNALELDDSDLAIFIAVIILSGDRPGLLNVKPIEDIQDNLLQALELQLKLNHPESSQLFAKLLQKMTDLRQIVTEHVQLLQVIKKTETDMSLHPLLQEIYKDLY
Description: Agonist potency at PPARgamma in CV1 cells by cell based transient transfection assay

[3] = biological target: T3, Peroxisome proliferator-activated receptor alpha (Homo sapiens, UniProt Q07869)
T3 sequence (Q07869 whole entry): T1 sequence (whole entry)
Description: Agonist potency at PPARalpha in CV1 cells by cell based transient transfection assay

[4] = biological target: T4, Peroxisome proliferator-activated receptor delta (Homo sapiens, UniProt Q03181)
T4 sequence (Q03181 whole entry): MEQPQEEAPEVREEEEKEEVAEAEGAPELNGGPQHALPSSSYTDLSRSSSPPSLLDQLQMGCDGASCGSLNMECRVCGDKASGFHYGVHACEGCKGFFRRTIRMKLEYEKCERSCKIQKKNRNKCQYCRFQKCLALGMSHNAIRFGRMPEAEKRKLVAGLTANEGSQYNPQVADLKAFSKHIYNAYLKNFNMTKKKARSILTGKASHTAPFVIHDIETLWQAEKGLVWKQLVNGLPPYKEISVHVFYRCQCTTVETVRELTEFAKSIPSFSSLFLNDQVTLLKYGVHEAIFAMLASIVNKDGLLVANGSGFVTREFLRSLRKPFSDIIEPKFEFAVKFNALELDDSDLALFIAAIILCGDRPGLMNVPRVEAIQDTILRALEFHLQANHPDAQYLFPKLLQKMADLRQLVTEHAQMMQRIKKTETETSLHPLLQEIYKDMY
Description: Agonist potency at PPARdelta in CV1 cells by cell based transient transfection assay

[5] = test system: Mus musculus; assay: Decrease in plasma TG level in human Apo-A-I transgenic C57BL/6 mouse at 50 mg/kg; assay type: functional; design: scale not given: the % may be the effect or the level left
[6] = test system: Mus musculus; assay: Decrease in plasma VLDL level in human Apo-A-I transgenic C57BL/6 mouse at 50 mg/kg; assay type: functional; design: scale not given: the % may be the effect or the level left
[7] = test system: Mus musculus; assay: Decrease in LDL cholesterol level in human Apo-A-I transgenic C57BL/6 mouse at 50 mg/kg; assay type: functional; design: scale not given: the % may be the effect or the level left
[8] = test system: Mus musculus; assay: Increase in HDL cholesterol level in human Apo-A-I transgenic C57BL/6 mouse at 50 mg/kg; assay type: functional

Activity [1] [%] | EC50 [2] [nM] | EC50 [3] [nM] | EC50 [4] [nM] | SMILES | Activity [5] [%] | Activity [6] [%] | Activity [7] [%] | Activity [8] [%]
82 | > 25000 | 465 | 808 | Cc1nc(-c2ccccc2C(F)(F)F)sc1C(=O)NCc1ccc(OC(C)(C)C(=O)O)cc1 | – | – | – | –
66 | 860 | – | > 10000 | Cc1nc(-c2ccc(C(C)(C)C)cc2)sc1C(=O)NCc1ccc(OC(C)(C)C(=O)O)cc1 | – | – | – | –
116 | > 10000 | – | – | Cc1nc(-c2ccc(OC(F)(F)F)cc2)sc1C(=O)NCc1ccc(OC(C)(C)C(=O)O)cc1 | – | – | – | –
– | > 10000 | > 10000 | > 10000 | Cc1nc(-c2ccc(O)cc2)sc1C(=O)NCc1ccc(OC(C)(C)C(=O)O)cc1 | – | – | – | –
110 | > 10000 | 70 | 4050 | Cc1nc(-c2ccc(C(F)(F)F)cc2)sc1CNCc1ccc(OC(C)(C)C(=O)O)cc1 | – | – | – | –
138 | 1870 | 210 | 20 | Cc1nc(-c2ccc(C(F)(F)F)cc2)sc1CCc1ccc(OC(C)(C)C(=O)O)cc1 | – | – | – | –
84 | > 10000 | 240 | > 10000 | Cc1nc(-c2ccc(C(F)(F)F)cc2)sc1C(=O)N(C)Cc1ccc(OC(C)(C)C(=O)O)cc1 | – | – | – | –
118 | > 10000 | 40 | > 10000 | Cc1nc(-c2ccc(F)cc2)sc1C(=O)NCc1ccc(OC(C)(C)C(=O)O)cc1 | – | – | – | –
– | > 10000 | > 10000 | > 10000 | Cc1nc(-c2ccc(OS(C)(=O)=O)cc2)sc1C(=O)NCc1ccc(OC(C)(C)C(=O)O)cc1 | – | – | – | –
108 | – | – | – | Cc1cc(SCc2sc(-c3ccc(C(F)(F)F)cc3)nc2C)ccc1OCC(=O)O | – | – | – | –
98 | 730 | 4 | 8240 | CC(C)(Oc1ccc(CNC(=O)c2sc(-c3ccc(C(F)(F)F)cc3)nc2C(F)(F)F)cc1)C(=O)O | – | – | – | –
69 | > 10000 | 9500 | > 10000 | Cc1nc(-c2ccc(C(F)(F)F)cc2)sc1C(=O)Nc1ccc(OC(C)(C)C(=O)O)cc1 | – | – | – | –
111 | > 10000 | 30 | > 10000 | Cc1nc(-c2ccc([N+](=O)[O-])cc2)sc1C(=O)NCc1ccc(OC(C)(C)C(=O)O)cc1 | – | – | – | –
103 | > 10000 | 10 | > 10000 | COc1ccc(-c2nc(C)c(C(=O)NCc3ccc(OC(C)(C)C(=O)O)cc3)s2)cc1 | – | – | – | –
94 | > 10000 | 10 | – | Cc1nc(-c2ccc(Cl)cc2)sc1C(=O)NCc1ccc(OC(C)(C)C(=O)O)cc1 | – | – | – | –
106 | > 25000 | 4 | > 25000 | Cc1nc(-c2cccc(C(F)(F)F)c2)sc1C(=O)NCc1ccc(OC(C)(C)C(=O)O)cc1 | – | – | – | –
129 | > 10000 | 110 | > 10000 | Cc1nc(-c2ccc(C(F)(F)F)cc2)sc1C(=O)NCCc1ccc(OC(C)(C)C(=O)O)cc1 | – | – | – | –
– | – | – | – | CC(C)OC(=O)C(C)(C)Oc1ccc(C(=O)c2ccc(Cl)cc2)cc1 [FENOFIBRATE] | 43 | 64 | 78 | 26
67 | > 10000 | 5640 | > 10000 | Cc1nc(-c2ccc(N)cc2)sc1C(=O)NCc1ccc(OC(C)(C)C(=O)O)cc1 | – | – | – | –
109 | > 10000 | 1320 | 6260 | Cc1nc(-c2ccc(C(F)(F)F)cc2)sc1CNC(=O)c1ccc(OC(C)(C)C(=O)O)cc1 | – | – | – | –

SMILES | Activity [1] [%] | EC50 [2] [nM] | EC50 [3] [nM] | EC50 [4] [nM] | Activity [5] [%] | Activity [6] [%] | Activity [7] [%] | Activity [8] [%]
Cc1nc(C(=O)NCc2ccc(OC(C)(C)C(=O)O)cc2)c(C)s1 | 171 | > 10000 | 1890 | 660 | – | – | – | –
Cc1cc(CCc2sc(-c3ccc(C(F)(F)F)cc3)nc2C)ccc1OCC(=O)O | 85 | 10000 | 2000 | 4 | – | – | – | –
